In patent US20250066370A1, “BICYCLIC TRIAZINE DERIVATIVES FOR THE TREATMENT OF CANCER” (DEUTSCHES KREBSFORSCHUNGSZENTRUM, priority 2022, published 2025):

Tests used:
CDK12/CyclinK = CDK12/CyclinK (Homo sapiens (Human), UniProt Q9NYV4); test: CDK12/CycK high ATP kinase assay (TR-FRET); type: biochemical; conditions: for IC50: 2 mM ATP (high ATP), median, read-out: CDK12/CyclinK, 2 mM ATP (high ATP), IC50 - [mol/l] (median); for (IC50 CDK12 high ATP) to (Degradation DC50 CDK12) ratio: IC50 CDK12 at 2 mM ATP divided by CDK12 degradation DC50 (IF, CAL-120)
Method: In the context of the present invention, the term “IC50 CDK12 hATP” refers to the IC50 values obtained according to the assay described in this section (2.2) herein below, i.e. the IC50 values for the inhibition of CDK12 at high (2 mM) ATP.
CDK12/CycK-inhibitory activity of compounds of the present invention at 2 millimol/L adenosine-tri-phosphate (ATP) was quantified employing the TR-FRET (TR-FRET=Time Resolved Fluorescence Energy Transfer) based CDK12/CycK activity inhibition assay as described in the following paragraphs.
A complex of human recombinant CDK12 and human recombinant CycK (both N-terminally His-tagged, expression and purification as described above) was used as enzyme. As substrate for the kinase reaction biotinylated peptide biotin-Ahx-KFELLPTPPLSPSRRSGL (C-terminus in amid form) was used which can be purchased e.g. form the company Biosyntan (Berlin-Buch, Germany).
For the assay 50 nanoL of a 100 fold concentrated solution of the test compound in DMSO was pipetted into either a black low volume 384 well microtiter plate or a black 1536 well microtiter plate (both Greiner Bio-One, Frickenhausen, Germany), 2 microL of a solution of CDK12/CycK in aqueous assay buffer [25 millimol/L HEPES pH 7.5, 20 millimol/L MgCl2, 5 millimol/L β-glycerophosphate, 2 millimol/L EGTA, 1.0 millimol/L dithiothreitol, 0.01% (v/v) Nonidet-P40 (Sigma), 0.01% (w/v) bovine serum albumin] were added and the mixture was incubated for 15 min at 22° C. to allow pre-binding of the test compounds to the enzyme before the start of the kinase reaction. Then the kinase reaction was started by the addition of 3 microL of a solution ATP (3.33 millimol/L=>final conc. in the 5 microL assay volume is 2 millimol/L) and substrate (1.67 micromol/L=>final conc. in the 5 microL assay volume is 1 micromol/L) in assay buffer and the resulting mixture was incubated for a reaction time of 60 min at 22° C. The concentration of CDK12/CycK was adjusted depending of the activity of the enzyme lot and was chosen appropriate to have the assay in the linear range, typical concentrations were about 0.75 nanomol/L. The reaction was stopped by the addition of 3 microL of a solution of TR-FRET detection reagents (125 nanomol/L streptavidine-XL665 [Cisbio Bioassays, Codolet, France] and 0.67 nanomol/L anti-Phospho-c-Myc (Ser 62) (E1J4K)-antibody from Cell Signalling [#13748] and 2 nanomol/L LANCE EU-W1024 labeled anti-rabbit IgG antibody [Perkin-Elmer, product no. 0083]) in an aqueous EDTA-solution (133 millimol/L EDTA, 0.27% (w/v) bovine serum albumin in 66.7 millimol/L HEPES pH 7.5).
The resulting mixture was incubated 1 h at 22° C. to allow the formation of complex between the phosphorylated biotinylated peptide and the detection reagents. Subsequently the amount of phosphorylated substrate was evaluated by measurement of the resonance energy transfer from the Eu-chelate to the streptavidine-XL. Therefore, the fluorescence emissions at 620 nm and 665 nm after excitation at 350 nm was measured in a TR-FRET reader, e.g. a Pherastar FS (BMG Labtechnologies, Offenburg, Germany) or a Viewlux (Perkin-Elmer). The ratio of the emissions at 665 nm and at […] was taken as the measure for the amount of phosphorylated substrate. The data were normalised (enzyme reaction without inhibitor=0% inhibition, all other assay components but no enzyme=100% inhibition).

[1] = system: CAL-120, human breast adenocarcinoma cells; test: Proliferation assay CAL-120 (crystal violet); type: cell-based; conditions: 96 h, CAL-120 parental cells, 4 days, median, read-out: Prolif-CAL-120, IC50 - [mol/l] (median)
Method: Human tumour cells were originally obtained from the American Type Culture Collection (ATCC), or from the Deutsche Sammlung von Mikroorganismen und Zellkulturen (DSMZ, German Collection of Microorganisms and Cell Cultures). Cultivated tumour cells (CAL-120, human breast adenocarcinoma cells, DSMZ ACC-459; MDA-MB-231, human breast cancer cells, ATCC HTB-26) were plated at a density of 4,000 cells/well in a 96-well multitier plate in 200 microL of their respective growth medium supplemented 10% fetal calf serum. After 24 hours, the cells of one plate (zero-point plate) were stained with crystal violet (see below), while the medium of the other plates was supplemented with the test substances in various concentrations (0 micromol/L, as well as in the range of 0.01-10 micromol/L; the final concentration of the solvent dimethyl sulfoxide was adjusted to 0.1%) using a Tecan HP D300 Digital Dispenser. The cells were incubated for 4 days in the presence of test substances. Cell proliferation was determined by staining the cells with crystal violet: the cells were fixed by adding 20 microL/measuring point of an 11% glutaric aldehyde solution for 15 minutes at room temperature. After three washing cycles of the fixed cells with water, the plates were dried at room temperature. The cells were stained by adding 100 microL/measuring point of a 0.1% crystal violet solution (pH 3.0). After three washing cycles of the stained cells with water, the plates were dried at room temperature. The dye was dissolved by adding 100 microL/measuring point of a 10% acetic acid solution. The extinction was determined by photometry at a wavelength of 595 nm. The change of cell number, in percent, was calculated by normalization of the measured values to the extinction values of the zero-point plate (=0%) and the extinction of the untreated (0 μM) cells (=100%). The IC50 values (inhibitory concentration at 50% of maximal effect) were determined by means of a 4 parameter fit.

CDK12 = CDK12 (Homo sapiens (Human), UniProt Q9NYV4); test: CDK12 nuclear protein level: immunofluorescence/high content analysis in CAL-120 cells; type: cell-based; conditions: 24 h, nuclear CDK12 staining intensity, median, read-out: CDK12 degradation IF, DC50 - [mol/l] (median)
Method: In the context of the present invention, the term “DC50 CDK12” refers to the DC50 values obtained according to the assay described in this section (7) herein below, i.e. the DC50 values for the degradation of CDK12.
CAL-120 human breast cancer cells (DSMZ ACC 459) are seeded in 1536-well microtiter plates (800 cells per well) containing 50 nanoL of compounds in Dose-Response. Control wells received DMSO or Example 4. Plates are then incubated for 24 h at 37° C. in an humidified incubator and fixed with 4% PFA for 10 min. Then immunofluorescence (IF) against CDK12 (CellSignalling CDK12 Antibody #11973, rabbit, 1:100 dilution) is performed using standard IF protocols. Cells are then stained with Hoechst 33342 (Life Technologies, H-1399, 0.1 microg/ml) and imaged on an automated confocal microscopy system (e.g. Perkin Elmer Opera Phenix). Nuclear and cytoplasmic intensity as well as the nuclear/cytoplasmic intensity ratio is determined by automated image analysis using custom generated scripts (MetaXpress). Data is then transferred to Genedata Screener software, normalized to DMSO and control and DC50 values (degrading concentration to achieve 50% reduction of nuclear CDK12 staining intensity relative to controls) are reported.

Sequence of CDK12/CyclinK (Q9NYV4 other isoform, or with tags, fused parts or gaps): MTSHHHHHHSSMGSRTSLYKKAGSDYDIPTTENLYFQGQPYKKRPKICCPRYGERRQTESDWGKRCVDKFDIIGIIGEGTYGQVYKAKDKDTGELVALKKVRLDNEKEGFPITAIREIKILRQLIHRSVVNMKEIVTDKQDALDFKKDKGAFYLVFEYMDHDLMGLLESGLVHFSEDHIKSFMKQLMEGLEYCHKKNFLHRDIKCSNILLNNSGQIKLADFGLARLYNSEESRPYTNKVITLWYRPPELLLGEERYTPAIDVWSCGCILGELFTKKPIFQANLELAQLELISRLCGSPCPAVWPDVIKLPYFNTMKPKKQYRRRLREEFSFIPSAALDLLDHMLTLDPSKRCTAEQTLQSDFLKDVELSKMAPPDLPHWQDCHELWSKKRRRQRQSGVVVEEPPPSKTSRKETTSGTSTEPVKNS
Sequence of CDK12/CyclinK (O75909 other isoform, or with tags, fused parts or gaps partner): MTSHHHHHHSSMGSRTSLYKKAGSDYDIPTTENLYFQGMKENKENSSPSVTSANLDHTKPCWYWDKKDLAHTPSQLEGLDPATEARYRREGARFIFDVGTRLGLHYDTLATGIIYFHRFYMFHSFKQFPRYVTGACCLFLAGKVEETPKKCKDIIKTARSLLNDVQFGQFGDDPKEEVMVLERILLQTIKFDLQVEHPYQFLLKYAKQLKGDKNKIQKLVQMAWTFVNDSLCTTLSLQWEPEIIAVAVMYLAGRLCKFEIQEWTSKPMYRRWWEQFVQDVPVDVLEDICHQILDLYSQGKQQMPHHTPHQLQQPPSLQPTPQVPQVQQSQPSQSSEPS
Sequence of CDK12 (Q9NYV4 whole entry): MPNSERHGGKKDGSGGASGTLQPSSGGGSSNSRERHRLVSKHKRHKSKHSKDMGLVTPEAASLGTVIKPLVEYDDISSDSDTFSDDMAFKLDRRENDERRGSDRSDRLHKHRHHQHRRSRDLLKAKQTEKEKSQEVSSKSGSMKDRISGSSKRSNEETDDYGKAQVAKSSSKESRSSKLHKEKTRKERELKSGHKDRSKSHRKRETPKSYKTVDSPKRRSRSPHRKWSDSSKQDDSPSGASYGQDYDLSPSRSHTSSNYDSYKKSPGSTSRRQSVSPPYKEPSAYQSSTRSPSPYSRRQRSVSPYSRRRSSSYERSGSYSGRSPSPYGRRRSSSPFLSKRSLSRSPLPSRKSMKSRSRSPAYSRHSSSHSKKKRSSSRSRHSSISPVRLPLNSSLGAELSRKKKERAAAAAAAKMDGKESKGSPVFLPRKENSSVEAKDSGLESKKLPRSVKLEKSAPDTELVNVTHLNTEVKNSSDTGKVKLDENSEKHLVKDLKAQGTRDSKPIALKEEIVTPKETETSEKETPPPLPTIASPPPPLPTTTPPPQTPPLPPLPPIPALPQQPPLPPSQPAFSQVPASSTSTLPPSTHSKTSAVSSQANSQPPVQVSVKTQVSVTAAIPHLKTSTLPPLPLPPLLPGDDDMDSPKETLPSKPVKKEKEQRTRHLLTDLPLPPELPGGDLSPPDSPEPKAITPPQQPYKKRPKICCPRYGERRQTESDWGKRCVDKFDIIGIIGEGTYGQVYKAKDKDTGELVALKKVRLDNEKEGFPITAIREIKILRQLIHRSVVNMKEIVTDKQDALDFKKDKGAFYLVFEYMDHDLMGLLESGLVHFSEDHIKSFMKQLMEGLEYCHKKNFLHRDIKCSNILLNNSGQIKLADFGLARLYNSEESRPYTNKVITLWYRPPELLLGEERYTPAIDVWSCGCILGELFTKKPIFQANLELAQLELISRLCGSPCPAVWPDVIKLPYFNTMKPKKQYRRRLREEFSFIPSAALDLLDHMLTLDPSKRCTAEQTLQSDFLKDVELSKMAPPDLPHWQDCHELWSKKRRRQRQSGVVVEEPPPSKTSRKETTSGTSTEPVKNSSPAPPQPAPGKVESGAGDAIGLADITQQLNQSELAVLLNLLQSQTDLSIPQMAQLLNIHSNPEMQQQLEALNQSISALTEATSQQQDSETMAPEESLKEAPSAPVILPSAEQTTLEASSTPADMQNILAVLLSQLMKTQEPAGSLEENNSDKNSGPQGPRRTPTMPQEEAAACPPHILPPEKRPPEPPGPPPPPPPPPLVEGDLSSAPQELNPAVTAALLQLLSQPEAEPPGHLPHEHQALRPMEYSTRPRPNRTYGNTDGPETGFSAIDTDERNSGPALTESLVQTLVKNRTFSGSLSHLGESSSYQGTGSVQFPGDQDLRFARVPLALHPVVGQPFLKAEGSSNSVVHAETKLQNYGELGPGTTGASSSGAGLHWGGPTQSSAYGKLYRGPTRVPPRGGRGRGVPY
Sequence of CDK12 (O75909 whole entry partner): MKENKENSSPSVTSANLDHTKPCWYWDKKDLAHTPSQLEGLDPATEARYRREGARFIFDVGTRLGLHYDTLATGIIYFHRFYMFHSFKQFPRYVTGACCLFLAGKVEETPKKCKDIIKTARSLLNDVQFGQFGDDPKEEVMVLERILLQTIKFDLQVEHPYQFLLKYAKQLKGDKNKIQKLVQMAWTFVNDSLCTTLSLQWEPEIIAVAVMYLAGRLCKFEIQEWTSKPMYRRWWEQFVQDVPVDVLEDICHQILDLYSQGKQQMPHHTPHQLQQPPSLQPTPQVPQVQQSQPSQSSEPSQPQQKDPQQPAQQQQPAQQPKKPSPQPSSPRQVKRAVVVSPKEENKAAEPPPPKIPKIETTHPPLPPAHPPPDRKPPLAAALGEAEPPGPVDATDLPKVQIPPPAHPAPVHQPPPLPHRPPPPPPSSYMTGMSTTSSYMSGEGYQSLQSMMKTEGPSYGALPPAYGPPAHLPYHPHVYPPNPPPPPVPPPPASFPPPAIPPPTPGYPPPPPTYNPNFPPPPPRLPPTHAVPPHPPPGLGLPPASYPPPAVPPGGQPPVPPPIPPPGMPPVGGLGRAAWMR

| IC50 (CDK12/CyclinK) [µM] | (IC50 CDK12 high ATP) to (Degradation DC50 CDK12) ratio (CDK12/CyclinK) | DC50 (CDK12) [µM] | SMILES | IC50 [1] [µM] |
| --- | --- | --- | --- | --- |
| 0.16 | <0.16 | > 1 | Cc1ccc(-c2nnc(CNc3nc(N4CCOCC4)nn4c(C(F)(F)F)cnc34)[nH]2)cn1 [Example 23, N-{[5-(6-methylpyridin-3-yl)-4H-1,2,4-triazol-3-yl]methyl}-2-(morpholin-4-yl)-7-(trifluoromethyl)imidazo[2,1-f][1,2,4]triazin-4-amine] | 0.0993 |
| 0.736 | 0.74 | 1 | FC(F)(F)c1ccc(-c2nnc(CNc3nc(N4CCOCC4)nc4c(C(F)(F)F)cnn34)[nH]2)cc1 [Example 6, 2-(morpholin-4-yl)-8-(trifluoromethyl)-N-({5-[4-(trifluoromethyl)phenyl]-4H-1,2,4-triazol-3-yl}methyl)pyrazolo[1,5-a][1,3,5]triazin-4-amine] | 0.224 |
| 0.489 | <0.49 | > 1 | Cc1ccc(-c2nnc(CNc3nc(N4CCOCC4)nc4c(C(F)(F)F)cnn34)[nH]2)cn1 [Example 22, N-{[5-(6-methylpyridin-3-yl)-4H-1,2,4-triazol-3-yl]methyl}-2-(morpholin-4-yl)-8-(trifluoromethyl)pyrazolo[1,5-a][1,3,5]triazin-4-amine] | 0.333 |

Second part, the molecule before the results:

| SMILES | IC50 (CDK12/CyclinK) [µM] | (IC50 CDK12 high ATP) to (Degradation DC50 CDK12) ratio (CDK12/CyclinK) | DC50 (CDK12) [µM] | IC50 [1] [µM] |
| --- | --- | --- | --- | --- |
| FC(F)(F)c1ccc(-c2cnc(CNc3nc(N4CCOCC4)nn4c(C(F)(F)F)cnc34)[nH]2)cn1 [Example 12, 2-(morpholin-4-yl)-7-(trifluoromethyl)-N-({5-[6-(trifluoromethyl)pyridin-3-yl]-1H-imidazol-2-yl}methyl)imidazo[2,1-f][1,2,4]triazin-4-amine] | 0.00309 | <3.09E−3 | > 1 | 0.0148 |
| FC(F)(F)c1ccc(-c2nnc(CNc3nc(N4CCOCC4)nn4c(C(F)(F)F)cnc34)[nH]2)cc1 [Example 11, 2-(morpholin-4-yl)-7-(trifluoromethyl)-N-({5-[4-(trifluoromethyl)phenyl]-4H-1,2,4-triazol-3-yl}methyl)imidazo[2,1-f][1,2,4]triazin-4-amine] | 0.0323 | 0.04 | 0.92 | 0.419 |
| FC(F)(F)Oc1ccc(-c2cnc(CNc3nc(N4CCOCC4)nc4c(Br)cnn34)[nH]2)cc1 [Example 4, 8-bromo-2-(morpholin-4-yl)-N-({5-[4-(trifluoromethoxy)phenyl]-1H-imidazol-2-yl}methyl)pyrazolo[1,5-a][1,3,5]triazin-4-amine] | 0.0348 | <0.03 | > 1 | 0.103 |
| FC(F)(F)c1ccc(-c2cnc(CNc3nc(N4CCOCC4)nc4c(Br)cnn34)[nH]2)cc1 [Example 3, 8-bromo-2-(morpholin-4-yl)-N-({5-[4-(trifluoromethyl)phenyl]-1H-imidazol-2-yl}methyl)pyrazolo[1,5-a][1,3,5]triazin-4-amine] | 0.267 | <0.09 | > 2.88 | 0.173 |
| FC(F)(F)Oc1ccc(-c2nnc(CNc3nc(N4CCOCC4)nc4c(Br)cnn34)[nH]2)cc1 [Example 2, 8-bromo-2-(morpholin-4-yl)-N-({5-[4-(trifluoromethoxy)phenyl]-4H-1,2,4-triazol-3-yl}methyl)pyrazolo[1,5-a][1,3,5]triazin-4-amine] | 0.75 | <0.27 | > 2.79 | 0.37 |
| FC(F)(F)c1ccc(-c2nnc(CNc3nc(N4CCOCC4)nn4c(C(F)(F)F)cnc34)[nH]2)cn1 [Example 20, 2-(morpholin-4-yl)-7-(trifluoromethyl)-N-({5-[6-(trifluoromethyl)pyridin-3-yl]-4H-1,2,4-triazol-3-yl}methyl)imidazo[2,1-f][1,2,4]triazin-4-amine] | 0.0119 | <0.01 | > 1 | 0.0835 |
